{"source": "paper PMC5063977", "about": "(The Journal of Biological Chemistry, 2016)", "target": "T1, RAMP3-CLR (AM2 receptor) (Homo sapiens, UniProt O60896+Q16602)", "T1 construct": "FLAG; expressed in transfected cells; host or cells: HEK-293 or HEK-293S cells, transient transfection, 1:1 RAMP:CLR", "T1 sequence (Q16602 23-461)": "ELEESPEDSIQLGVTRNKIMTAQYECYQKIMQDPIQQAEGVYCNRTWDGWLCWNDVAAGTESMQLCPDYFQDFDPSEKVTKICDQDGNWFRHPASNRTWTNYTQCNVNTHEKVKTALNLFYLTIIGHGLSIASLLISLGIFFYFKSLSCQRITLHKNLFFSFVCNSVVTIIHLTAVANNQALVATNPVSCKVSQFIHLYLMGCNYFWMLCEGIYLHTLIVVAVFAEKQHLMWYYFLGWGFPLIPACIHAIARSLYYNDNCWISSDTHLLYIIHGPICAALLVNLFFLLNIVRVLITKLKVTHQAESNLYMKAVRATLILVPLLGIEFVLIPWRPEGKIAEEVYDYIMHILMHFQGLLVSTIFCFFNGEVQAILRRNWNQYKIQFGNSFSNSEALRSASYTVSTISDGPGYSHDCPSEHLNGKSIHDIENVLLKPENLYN", "T1 sequence (O60896 24-148)": "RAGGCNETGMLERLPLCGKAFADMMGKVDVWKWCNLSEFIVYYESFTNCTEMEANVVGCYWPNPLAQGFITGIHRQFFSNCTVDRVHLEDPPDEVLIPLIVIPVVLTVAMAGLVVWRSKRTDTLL", "experiment": "cAMP accumulation, HEK-293S cells, RAMP3 + CLR", "format": "cell-based", "design": "dose or concentration left out as unconfirmed", "conditions": "HEK293S, mean ± S.E., n = 5", "procedure": "HEK-293 cells, provided by Dr. Jügen Müller (University of Aston), were cultured in DMEM supplemented with 10% heat-inactivated FBS and kept at 37 °C in a humidified 95% air, 5% CO2 incubator. HEK-293S cells (a gift from AstraZeneca) were cultured in DMEM supplemented with 8% heat-inactivated FBS and kept at 37 °C in a humidified 95% air, 5% CO2 incubator. HEK-293 cells were transfected with FuGENE 6 (Roche Applied Science) in accordance with the manufacturer's instructions using a 1:3 (w:v) DNA:FuGENE ratio and a 1:1 ratio of RAMP to CLR. HEK-293S cells were seeded into 96-well poly-D-lysine-coated plates at a density of 15,000 cells/well (determined using a Countess^TM cell counter, Invitrogen) 1 day prior to transfection. HEK-293S cells were transiently transfected as described previously ([38]) using a 1:1 ratio of RAMP to CLR. The transfected cell lines were grown for 24–48 h prior to assaying.\nThe transfected HEK-293 cells were washed in PBS, resuspended in stimulation buffer (PBS containing 0.1% BSA and 0.5 mM IBMX), and seeded at 2000 cells/well in 384-well white Optiplates. Ligands were added in the range of 1 pM to 1 mM, and cAMP accumulation was measured after 30 min of stimulation using a LANCE® cAMP detection kit (PerkinElmer Life Sciences). […] Plates were read using a Mithras LB 940 multimode microplate reader (Berthold Technologies). […]", "data": [{"compound": "CC[C@H](C)[C@H](NC(=O)[C@H](CCC(N)=O)NC(=O)[C@H](Cc1c[nH]cn1)NC(=O)[C@H](C)NC(=O)[C@H](CC(C)C)NC(=O)[C@H](CCCCN)NC(=O)[C@H](CCC(N)=O)NC(=O)[C@@H](NC(=O)[C@@H](NC(=O)[C@@H]1CSSC[C@H](NC(=O)CNC(=O)[C@H](Cc2ccccc2)NC(=O)[C@H](CO)NC(=O)[C@H](CCCNC(=N)N)NC(=O)[C@H](CC(C)C)NC(=O)CNC(=O)[C@H](CCC(N)=O)NC(=O)[C@H](Cc2ccccc2)NC(=O)[C@H](CC(N)=O)NC(=O)[C@H](CC(N)=O)NC(=O)[C@H](CCSC)NC(=O)[C@H](CO)NC(=O)[C@H](CCC(N)=O)NC(=O)[C@H](CCCNC(=N)N)NC(=O)[C@@H](N)Cc2ccc(O)cc2)C(=O)N[C@@H](CCCNC(=N)N)C(=O)N[C@@H](Cc2ccccc2)C(=O)NCC(=O)N[C@@H]([C@@H](C)O)C(=O)N1)[C@@H](C)O)C(C)C)C(=O)N[C@@H](Cc1ccc(O)cc1)C(=O)N[C@@H](CCC(N)=O)C(=O)N[C@@H](Cc1ccccc1)C(=O)N[C@H](C(=O)N[C@@H](CC(=O)O)C(=O)N[C@@H](CCCCN)C(=O)N[C@@H](CC(=O)O)C(=O)N[C@@H](CCCCN)C(=O)N[C@@H](CC(=O)O)C(=O)N[C@@H](CC(N)=O)C(=O)N[C@H](C(=O)N[C@@H](C)C(=O)N1CCC[C@H]1C(=O)N[C@@H](CCCNC(=N)N)C(=O)N[C@@H](CO)C(=O)N[C@@H](CCCCN)C(=O)N[C@H](C(=O)N[C@@H](CO)C(=O)N1CCC[C@H]1C(=O)N[C@@H](CCC(N)=O)C(=O)NCC(=O)N[C@@H](Cc1ccc(O)cc1)C(N)=O)[C@@H](C)CC)C(C)C)[C@@H](C)O", "note": "[AM, adrenomedullin]", "values": [{"measurement": "Emax", "value": "39.1 ± 1.2", "unit": "%"}]}]}
